Data on 6 compounds can be found in patent US5360907A, “Pyrrolo[3,2-B]pyridinylalkyl benzamide derivatives” (G.D. Searle & Co., priority 1993, dated 1994).

By IC50 is commonly meant the concentration at which inhibition is half-maximal.

The target in one experiment is T1, PAF receptor (Homo sapiens, UniProt P25105).
T1 construct: human platelet membrane preparation; tissue Lifesource, Inc. (Glenview, Ill.); host or cells: human packed platelets (membrane preparation)
Briefly: Assay A: Human Platelet Receptor Binding (inhibition of specific [^3 H]PAF binding to human platelet membrane preparation). The conditions noted are these: 0.75 nM [^3 H]PAF, human platelet membranes, 30 minutes at 24° C. Here is the method: Compounds of the invention were evaluated for their ability to inhibit specific binding of [^3 H]PAF to human platelet membrane preparation. Human packed platelets were obtained from Lifesource, Inc. (Glenview, Ill.) and washed 3 times with 10 mM Trizma pH 7.0, 2 mM EDTA (dipotassium salt), 150 mM KCl and then once with 10 mM Trizma 7.4, 20 mM CaCl2. The platelets were broken by freezing in a dry ice-ethanol bath, followed by thawing in 24° C. water baths. The preparation was centrifuged (40,000×g, 20 minutes, 4'C) and the pellet suspended in 10 mM Trizma 7.4, 20 mM CaCl2, 5 mg/ml human albumin. Protein concentration in the platelet membrane preparation was determined by the Lowry method [O. H. Lowry et al., J. Biol. Chem., 193, 265-275 (1951)]. Aliquots of the membrane preparation were stored at -70° C. Each preparation was characterized for PAF receptor number and dissociation constant (Kd). In binding assays 5 μl of test compound, solubilized in DMSO, was added to polypropylene tubes along with 0.75 nM [^3 H]PAF and 200 mcl [0.075 nM] of membranes and 95 μl 10 mM Trizma 7.4, 20 mM CaCl2, 5 mg/ml human albumin. Tubes were incubated for 30 minutes at 24° C. The incubation was terminated by adding 4 ml of ice-cold 10 mM Trizma pH 7.4, 20 mM CaCl2 and 20 mg/ml BSA prior to vacuum filtration using Whatman GF/C filters. Filters were prepared and counted for a scintillation counter. All DPM values were corrected for background and isotope decay. Triplicate determinations for single doses were averaged. The amount of non-specific binding was subtracted from all dose averages, giving an amount of specific binding in all cases. The IC50 values for the compounds of the invention were determined by the Allfit program using percent displacement data. (Allfit is a `basic` computer program for simultaneous curve fitting of a family of signoidal dose-response curves using the four parameter logistic equation.) Results are shown in Table I.

For another experiment, the system named is human platelets. Description: Assay B: Human Platelet Aggregation Inhibition (PAF-induced aggregation in human platelet-rich plasma). In kind it is cell-based. To be noted: 37°. Here is the method: Compounds of the invention were evaluated for their ability to inhibit PAF-induced aggregation of human platelets in a human-platelet-rich plasma. Venous blood was collected from donors who fasted for 8 hours and were instructed not to use antiinflammatory drugs for 2 weeks prior to the blood draw. Blood was collected into syringes containing 0.1 ml of 3.8% [w/v] citrate and centrifuged in polypropylene tubes at 150 xg for 20 minutes at room temperature. The platelet rich plasma [PRP] was collected and let sit for 20 minutes at room temperature. Platelet activating factor [PAF] was diluted in 0.9% NaCl with 0.25% bovine serum albumin. Silicon treated cuvettes with stir bars were placed in the 37° heating block of the platelet aggregometer [Bio/Data Corporation, Platelet Aggregation Profiler, Model PAP-4]. PRP and test compound were added to cuvettes and aggregation monitored for 10-15 seconds at 37° with stirring. PAF was added and aggregation monitored for an additional 3 minutes. Peak aggregation was considered the peak of the first aggregation wave, usually 45-60 seconds after PAF addition. Inhibition of aggregation was determined by the following: 1-[(% aggregation in the presence of compound).div.(% maximal aggregation)]. A log/logit transformation was used to determine half maximal inhibitory concentration of a test compound [IC50 ].

T1 sequence (P25105 whole entry): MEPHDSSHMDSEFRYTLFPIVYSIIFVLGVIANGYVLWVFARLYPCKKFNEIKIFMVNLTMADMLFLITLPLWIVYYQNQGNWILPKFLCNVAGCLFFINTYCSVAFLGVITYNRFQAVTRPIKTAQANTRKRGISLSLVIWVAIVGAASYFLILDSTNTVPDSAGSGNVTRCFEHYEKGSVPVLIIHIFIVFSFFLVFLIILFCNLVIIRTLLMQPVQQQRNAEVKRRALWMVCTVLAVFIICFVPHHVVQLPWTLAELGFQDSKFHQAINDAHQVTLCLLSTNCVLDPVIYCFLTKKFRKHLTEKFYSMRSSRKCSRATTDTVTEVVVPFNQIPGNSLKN

In the case of `CC(C)N(C(=O)c1ccc(Cn2ccc3ncccc32)c(Br)c1)C1CCCCC1` [Example 7, 3-bromo-N-cyclohexyl-N-(1-methylethyl)-4-(1H-pyrrolo[3,2-b]pyridin-1-ylmethyl)benzamide], at PAF receptor, the IC50 stood at 8 nM. The same measure, in the same setting: in the case of `COc1cc(Cn2ccc3ncccc32)ccc1C(=O)N(C1CCCC1)C1CC(C)CC(C)C1` (stereo not shown) [Example 5, N-cyclopentyl-N-(3,5-dimethylcyclohexyl)-2-methoxy-4-(1H-pyrrolo[3,2-b]pyridin-1-ylmethyl)benzamide] it was 15 nM. Regarding `COc1cc(C(=O)N(C(C)C)C2CCCCC2)ccc1Cn1ccc2ncccc21` [Example 1, N-cyclohexyl-3-methoxy-N-(1-methylethyl)-4-(1H-pyrrolo[3,2-b]pyridin-1-ylmethyl)benzamide], the IC50 in the experiment on human platelets turned out to be 2 nM; on PAF receptor, 38 nM. `Cc1cc(C(=O)N(C2CCCCC2)C2CCCC2)ccc1Cn1ccc2ncccc21` [Example 6, N-cyclohexyl-N-cyclopentyl-3-methyl-4-(1H-pyrrolo[3,2-b]pyridin-1-ylmethyl)benzamide] showed a concentration for half-maximal inhibition (IC50) at PAF receptor of 39 nM.

In turn, `COc1cc(Cn2ccc3ncccc32)ccc1C(=O)N(C1CCCCC1)C1CCC1` [Example 4, N-cyclobutyl-N-cyclohexyl-2-methoxy-4-(1H-pyrrolo[3,2-b]pyridin-1-ylmethyl)benzamide] showed a half-maximal inhibitory concentration (IC50) on PAF receptor of 7 nM.

For the compound `COc1cc(Cn2ccc3ncccc32)ccc1C(=O)N(C(C)C)C1CCCCC1` [Example 3, N-cyclohexyl-2-methoxy-N-(1-methylethyl)-4-(1H-pyrrolo[3,2-b]pyridin-1-ylmethyl)benzamide], the IC50 on PAF receptor stood at 2 nM.
